These results are taken from patent US20080152640A1, “Means and Methods For Treating a Disease Which is Associated With an Excess Transport of Hyaluronan Across a Lipid Bilayer” (priority 2003, published 2008).

The subject of data set [1] is hyaluronan synthase. To be noted: for IC50: read-out: HA synthase activity (IC50), membranes of human fibroblasts.
Data set [2] deals with MRP2 (Homo sapiens, UniProt Q92887). To be noted: cited from earlier work.
Data set [3] concerns human fibroblasts. Nature of the data set: Hyaluronan production of human fibroblasts (ELISA of culture medium). The format is cell-based. The conditions noted are these: for IC50: Fibroblast, read-out: HA production (IC50).
In data set [4] the target is T1, MRP7 (Homo sapiens, UniProt Q5T3U5).
T1 sequence (Q5T3U5 1-1492): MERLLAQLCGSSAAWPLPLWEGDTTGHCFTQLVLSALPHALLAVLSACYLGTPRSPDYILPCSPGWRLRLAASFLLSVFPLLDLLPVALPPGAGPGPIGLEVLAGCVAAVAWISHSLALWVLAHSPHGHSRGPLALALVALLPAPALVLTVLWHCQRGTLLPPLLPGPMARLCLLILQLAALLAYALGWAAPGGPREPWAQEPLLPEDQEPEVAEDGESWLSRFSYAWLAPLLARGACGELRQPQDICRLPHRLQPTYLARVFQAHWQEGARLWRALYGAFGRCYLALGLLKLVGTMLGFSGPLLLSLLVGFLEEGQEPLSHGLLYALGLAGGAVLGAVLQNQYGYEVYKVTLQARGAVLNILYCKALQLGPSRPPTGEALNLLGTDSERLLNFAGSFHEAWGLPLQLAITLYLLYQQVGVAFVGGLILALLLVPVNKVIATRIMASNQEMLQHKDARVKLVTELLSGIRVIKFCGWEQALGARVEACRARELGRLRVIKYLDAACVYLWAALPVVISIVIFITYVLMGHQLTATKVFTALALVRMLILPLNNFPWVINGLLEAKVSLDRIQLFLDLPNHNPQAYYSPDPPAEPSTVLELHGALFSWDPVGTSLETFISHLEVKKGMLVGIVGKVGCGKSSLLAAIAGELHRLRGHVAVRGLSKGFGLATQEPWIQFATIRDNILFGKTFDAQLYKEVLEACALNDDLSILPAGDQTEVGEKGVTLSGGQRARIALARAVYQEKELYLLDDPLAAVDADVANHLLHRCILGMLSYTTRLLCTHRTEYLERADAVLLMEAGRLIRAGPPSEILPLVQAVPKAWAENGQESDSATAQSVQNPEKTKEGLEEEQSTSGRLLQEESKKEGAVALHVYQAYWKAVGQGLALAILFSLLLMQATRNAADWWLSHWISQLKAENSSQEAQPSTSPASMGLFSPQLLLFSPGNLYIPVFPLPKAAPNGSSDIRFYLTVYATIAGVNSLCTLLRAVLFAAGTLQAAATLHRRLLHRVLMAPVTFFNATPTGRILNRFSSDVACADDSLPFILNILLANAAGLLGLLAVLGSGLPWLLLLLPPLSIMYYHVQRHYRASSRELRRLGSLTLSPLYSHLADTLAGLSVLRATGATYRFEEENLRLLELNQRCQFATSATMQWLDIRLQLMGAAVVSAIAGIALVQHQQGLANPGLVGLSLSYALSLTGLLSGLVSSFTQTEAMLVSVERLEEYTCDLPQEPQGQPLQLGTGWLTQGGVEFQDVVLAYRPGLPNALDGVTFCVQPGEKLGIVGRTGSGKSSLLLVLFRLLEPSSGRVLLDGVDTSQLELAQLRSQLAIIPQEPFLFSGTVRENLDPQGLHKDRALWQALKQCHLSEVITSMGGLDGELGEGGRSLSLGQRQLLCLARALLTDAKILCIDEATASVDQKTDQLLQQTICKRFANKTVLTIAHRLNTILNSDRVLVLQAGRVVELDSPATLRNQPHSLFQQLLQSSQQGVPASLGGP
The conditions noted are these: cited from earlier work.

The target in data set [5] is MRP5 (Homo sapiens, UniProt O15440). The conditions noted are these: cited from earlier work.
Data set [6] concerns human skin fibroblasts. The data set can be described thus: Proliferation of human skin fibroblasts (cell counting). Type of data set: cell-based. The conditions noted are these: Homo sapiens, Skin fibroblast, read-out: Proliferation (IC50). The protocol:
Human fibroblasts were grown in […] in Dulbecco's modified Eagles medium supplemented with streptomycin/penicillin (100 units of each/ml), kanamycin (100 units/ml) and 10% foetal calf serum. Cell proliferation was determined by cell counting after trypsinisation three days after seeding.

Data set [7] has as its system hyaluronan transport. The data set can be described thus: Inhibition of hyaluronan transport (export) from human fibroblasts, discussion of Example 9. To be noted: for inhibition of hyaluronan transport (words): human fibroblasts.
Data set [8] has as its system human fibroblasts. The data set can be described thus: Export of endogenously synthesized [3H]hyaluronan from human fibroblasts. Type of data set: cell-based. To be noted: for [3H]hyaluronan: 50 μg/ml in pinocytotic media, 40 hours. The protocol:
(§1) This experiment was performed to investigate, whether an excess of hyaluronan oligosaccharides introduced into the cytosol interfere with the export of hyaluronan synthesized by the human fibroblasts. Fibroblasts (4×10^4 cells) were seeded into culture flasks of 25 cm^2 growth areas and incubated for 24 hours. High molecular weight hyaluronan, hyaluronan oligosaccharides, a mixture of N-acetyl-glucosamine and glucuronic acid or control buffer were introduced into the cytosol by the method of osmotic lysis of pinocytotic vesicles. The concentrations of the added components in the pinocytotic media were 50 μg/ml. The cells were incubated for 40 hours in the presence of [3H]GlcN (8 μCi/ml, specific activity 29 Ci/mmole) and the amount of radioactive hyaluronan released into the culture medium was determined as described.
as §1, with “Ci/ml,” for “μCi/ml,”, “μCi/mmole)” for “Ci/mmole)”
This experiment was performed to investigate, whether both processes could be uncoupled. Fibroblasts were labelled with [3H]GlcN and hyaluronan oligosaccharides, high molecular weight hyaluronan or an equal mixture of GlcNac and GlcA were introduced into the cytosol. [3H]hyaluronan secreted into the medium was isolated by ion exchange chromatography and the radioactivity was determined.

In data set [9] the test system is bovine articular cartilage. Nature of the data set: Proteoglycan loss from interleukin-induced osteoarthritic bovine cartilage organ culture. The format is cell-based. To be noted: different concentrations.
Description: We analyzed the efficacy of several inhibitors in organ cultures of bovine articular cartilage that was induced to become osteoarthritic by interleukin.
The target in data set [10] is T2, MRP4 (Homo sapiens, UniProt O15439).
T2 sequence (O15439 1-1325): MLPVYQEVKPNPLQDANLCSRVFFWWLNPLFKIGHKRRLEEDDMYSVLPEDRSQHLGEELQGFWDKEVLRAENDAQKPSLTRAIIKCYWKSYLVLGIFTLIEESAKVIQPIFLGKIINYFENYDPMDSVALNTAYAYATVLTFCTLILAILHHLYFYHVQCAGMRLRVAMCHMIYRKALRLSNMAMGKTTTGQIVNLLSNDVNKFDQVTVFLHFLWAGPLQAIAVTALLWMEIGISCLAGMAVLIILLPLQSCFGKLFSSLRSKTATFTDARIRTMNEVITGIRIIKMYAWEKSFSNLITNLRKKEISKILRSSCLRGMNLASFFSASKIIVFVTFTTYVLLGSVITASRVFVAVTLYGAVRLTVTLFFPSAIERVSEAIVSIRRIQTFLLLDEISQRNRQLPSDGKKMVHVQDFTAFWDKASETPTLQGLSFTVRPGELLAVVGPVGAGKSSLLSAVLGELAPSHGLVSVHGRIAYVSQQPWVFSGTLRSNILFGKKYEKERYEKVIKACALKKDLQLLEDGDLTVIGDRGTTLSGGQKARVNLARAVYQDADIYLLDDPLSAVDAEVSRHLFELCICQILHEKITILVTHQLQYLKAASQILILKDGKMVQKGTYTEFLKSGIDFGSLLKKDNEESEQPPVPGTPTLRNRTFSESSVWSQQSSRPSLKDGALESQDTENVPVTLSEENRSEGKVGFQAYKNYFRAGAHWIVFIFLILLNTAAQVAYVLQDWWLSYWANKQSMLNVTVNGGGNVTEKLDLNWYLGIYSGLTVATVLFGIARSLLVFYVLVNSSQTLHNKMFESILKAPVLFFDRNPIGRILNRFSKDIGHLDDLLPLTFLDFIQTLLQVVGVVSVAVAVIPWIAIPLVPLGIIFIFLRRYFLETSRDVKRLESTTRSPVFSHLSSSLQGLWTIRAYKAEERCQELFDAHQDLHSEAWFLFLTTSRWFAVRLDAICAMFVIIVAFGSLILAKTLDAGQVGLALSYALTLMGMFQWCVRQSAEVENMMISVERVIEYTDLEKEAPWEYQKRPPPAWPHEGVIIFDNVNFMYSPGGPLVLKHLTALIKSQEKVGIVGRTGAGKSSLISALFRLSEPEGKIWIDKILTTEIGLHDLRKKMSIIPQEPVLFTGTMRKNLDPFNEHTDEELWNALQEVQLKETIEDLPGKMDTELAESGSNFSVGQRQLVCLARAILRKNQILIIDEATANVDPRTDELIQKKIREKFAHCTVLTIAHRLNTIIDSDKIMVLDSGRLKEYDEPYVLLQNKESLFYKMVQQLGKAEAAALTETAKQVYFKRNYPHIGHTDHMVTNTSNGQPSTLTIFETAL
The conditions noted are these: read-out: IC50, MRP4 mediated export of methotrexate; substrate methotrexate; cited from earlier work.

Setting [11] is: human fibroblasts, culture medium.

Where two headings read alike, the source gives them in different places.

Sequence of MRP5 (O15440 whole entry): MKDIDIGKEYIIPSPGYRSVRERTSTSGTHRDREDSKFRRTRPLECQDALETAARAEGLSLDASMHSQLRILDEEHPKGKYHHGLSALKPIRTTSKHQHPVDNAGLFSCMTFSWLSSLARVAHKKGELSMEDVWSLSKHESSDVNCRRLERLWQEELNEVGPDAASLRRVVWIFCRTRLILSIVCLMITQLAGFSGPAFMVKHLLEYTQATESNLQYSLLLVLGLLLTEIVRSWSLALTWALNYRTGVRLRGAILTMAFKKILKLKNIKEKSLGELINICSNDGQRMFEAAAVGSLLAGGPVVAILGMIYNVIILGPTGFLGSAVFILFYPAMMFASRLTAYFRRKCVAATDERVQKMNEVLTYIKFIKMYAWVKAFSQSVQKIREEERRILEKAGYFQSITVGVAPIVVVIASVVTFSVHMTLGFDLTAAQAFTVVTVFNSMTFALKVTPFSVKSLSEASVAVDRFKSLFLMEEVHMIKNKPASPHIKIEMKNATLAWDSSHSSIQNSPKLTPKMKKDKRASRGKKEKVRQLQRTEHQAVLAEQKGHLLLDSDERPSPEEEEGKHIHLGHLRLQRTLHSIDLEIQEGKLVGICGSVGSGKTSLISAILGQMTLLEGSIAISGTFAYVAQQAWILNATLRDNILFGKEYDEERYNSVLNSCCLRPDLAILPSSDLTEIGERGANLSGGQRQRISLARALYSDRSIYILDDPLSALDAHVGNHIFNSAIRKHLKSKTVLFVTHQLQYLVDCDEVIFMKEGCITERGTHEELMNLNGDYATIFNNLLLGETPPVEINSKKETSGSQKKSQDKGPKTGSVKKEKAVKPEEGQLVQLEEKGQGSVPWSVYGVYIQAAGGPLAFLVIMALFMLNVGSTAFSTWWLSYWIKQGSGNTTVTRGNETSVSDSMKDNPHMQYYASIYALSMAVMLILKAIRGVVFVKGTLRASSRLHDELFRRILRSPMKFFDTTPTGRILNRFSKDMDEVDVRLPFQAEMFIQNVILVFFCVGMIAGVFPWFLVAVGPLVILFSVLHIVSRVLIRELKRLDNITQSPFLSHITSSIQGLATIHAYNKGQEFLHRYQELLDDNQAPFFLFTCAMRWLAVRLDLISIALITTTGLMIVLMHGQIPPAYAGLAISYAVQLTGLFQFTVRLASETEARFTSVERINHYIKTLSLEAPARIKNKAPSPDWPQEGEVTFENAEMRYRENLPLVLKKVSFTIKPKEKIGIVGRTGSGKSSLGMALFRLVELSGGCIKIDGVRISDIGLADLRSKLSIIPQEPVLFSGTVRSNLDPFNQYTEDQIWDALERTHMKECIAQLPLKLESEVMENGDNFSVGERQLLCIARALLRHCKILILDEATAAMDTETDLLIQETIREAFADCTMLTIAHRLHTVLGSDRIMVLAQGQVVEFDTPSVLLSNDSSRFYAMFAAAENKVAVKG
Sequence of MRP2 (Q92887 whole entry): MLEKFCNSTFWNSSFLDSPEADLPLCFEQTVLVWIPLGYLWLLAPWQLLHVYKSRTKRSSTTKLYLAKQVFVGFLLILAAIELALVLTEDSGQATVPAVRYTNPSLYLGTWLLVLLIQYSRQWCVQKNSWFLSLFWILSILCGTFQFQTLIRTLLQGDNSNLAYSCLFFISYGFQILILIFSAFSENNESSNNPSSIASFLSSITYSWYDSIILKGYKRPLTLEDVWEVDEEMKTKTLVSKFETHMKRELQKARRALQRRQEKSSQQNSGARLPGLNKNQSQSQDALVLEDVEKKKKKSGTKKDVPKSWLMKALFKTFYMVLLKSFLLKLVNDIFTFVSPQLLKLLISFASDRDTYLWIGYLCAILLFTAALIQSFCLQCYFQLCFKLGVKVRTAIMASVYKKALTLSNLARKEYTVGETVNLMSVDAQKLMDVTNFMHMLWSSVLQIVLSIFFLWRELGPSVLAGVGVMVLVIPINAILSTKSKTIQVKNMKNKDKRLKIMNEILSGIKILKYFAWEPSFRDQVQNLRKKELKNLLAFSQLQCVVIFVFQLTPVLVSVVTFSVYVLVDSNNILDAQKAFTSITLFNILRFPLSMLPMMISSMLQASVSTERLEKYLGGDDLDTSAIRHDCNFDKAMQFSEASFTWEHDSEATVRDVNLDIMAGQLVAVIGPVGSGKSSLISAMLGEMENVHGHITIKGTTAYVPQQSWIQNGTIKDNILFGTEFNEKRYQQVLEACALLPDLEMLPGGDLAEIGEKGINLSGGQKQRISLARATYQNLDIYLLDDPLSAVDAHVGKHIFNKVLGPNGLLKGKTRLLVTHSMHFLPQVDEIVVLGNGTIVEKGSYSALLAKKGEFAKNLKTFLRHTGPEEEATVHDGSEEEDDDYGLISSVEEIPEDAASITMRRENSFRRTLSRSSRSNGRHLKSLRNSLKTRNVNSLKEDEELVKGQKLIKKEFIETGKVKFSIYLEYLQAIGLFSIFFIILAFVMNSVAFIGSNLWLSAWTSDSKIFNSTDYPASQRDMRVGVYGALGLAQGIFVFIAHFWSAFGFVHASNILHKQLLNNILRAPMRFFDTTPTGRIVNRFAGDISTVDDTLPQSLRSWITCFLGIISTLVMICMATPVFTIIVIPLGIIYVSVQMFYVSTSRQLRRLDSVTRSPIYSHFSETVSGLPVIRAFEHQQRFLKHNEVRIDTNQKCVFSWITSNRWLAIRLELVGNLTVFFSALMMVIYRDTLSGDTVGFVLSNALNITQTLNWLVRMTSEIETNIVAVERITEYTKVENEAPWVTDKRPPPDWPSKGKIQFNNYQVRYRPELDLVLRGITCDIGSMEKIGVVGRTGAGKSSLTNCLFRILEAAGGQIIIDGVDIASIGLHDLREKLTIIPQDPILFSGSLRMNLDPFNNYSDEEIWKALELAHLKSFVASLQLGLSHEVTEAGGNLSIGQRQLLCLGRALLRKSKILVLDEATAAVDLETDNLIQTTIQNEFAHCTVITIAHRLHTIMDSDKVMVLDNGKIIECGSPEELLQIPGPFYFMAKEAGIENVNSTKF

As to `CN(C)C(=O)CCSC(SCCC(=O)O)c1cccc(/C=C/c2ccc3ccc(Cl)cc3n2)c1` (centres unmarked) [MK-571], the “hyaluronan transport / synthase activity in membranes” value in [1] (membranes from human fibroblasts) is listed as “less efficient”. The IC50 in data set [1] was above 100 µM; in data set [2], 469 µM; in data set [3] (setting [11]), above 400 µM; in data set [6], 150 µM. Further, the “concentrations at which hyaluronan secretion/production is inhibited” value in data set [3] (human fibroblasts, inhibition only partial) was “above 100 μM”. The “inhibition of 17β-glucuronosyl-estradiol export by MRP7” value in data set [4] (at 30 μM) is 42%. In data set [5] (at concentrations up to 50 μM), the “effect on MRP5 mediated transport of cGMP” value is “no inhibitory effect”. The “published inhibitory concentrations IC50 or Ki, MRP5” value in [5] is “no”. Also, in data set [7], the “inhibition of hyaluronan transport (words)” value (from here on “inhibition … (words)”) is on record as “did not inhibit”.

Turning to Hyaluronan, the [3H]hyaluronan was 10700 cpm in data set [8] (Example 10 Table 2, buffer) and 10723 cpm in data set [8] (Example 11 Table 1, buffer 9436). Further, the “export of endogenous labelled hyaluronan” value in data set [8] (introduced into the cytosol) is recorded as “not”.

Take `CC(C)COCC(CN(Cc1ccccc1)c1ccccc1)N1CCCC1` (centres unmarked) [bepidril]: the “protection from proteoglycan loss, safranin O histology” value in data set [9] is “only inhibitory at high concentrations”.

As for `OCCN(CCO)c1nc(N2CCCCC2)c2nc(N(CCO)CCO)nc(N3CCCCC3)c2n1` [Dipyramidole], the IC50 was around 1 µM in data set [1] and 15 µM in data set [3] (Homo sapiens). Further, the “inhibition … (words)” value in [7] is recorded as “effective inhibitor”.

For the compound `COc1cc2c(cc1OC)-c1c/c(=N\c3c(C)cc(C)cc3C)n(C)c(=O)n1CC2` [Trequinsin], the IC50 is 60 µM in [1], around 10 µM in data set [10], 6 µM in data set [3] (setting [11]) and 100 µM in [6]. For the same compound, in [4] (at 100 μM), the “inhibition of export of 17β-glucuronosyl-estradiol by MRP7” value is 44%. Also, the Ki (in general, the dissociation constant of the complex between target and ligand, obtained from inhibition or displacement) is 0.38 µM in data set [5] (substrate cAMP, read-out: Ki, MRP5 mediated transport of cAMP) and 0.24 µM in data set [5] (substrate cGMP, read-out: Ki, MRP5 mediated transport of cGMP). Further, in [7], the “inhibition … (words)” value is on record as “good inhibitor”.

Consider `N=C(N)NC(=O)c1nc(Cl)c(N)nc1N` [amyloride], for which, in data set [9], the “protection from proteoglycan loss, safranin O histology” value is “only inhibitory at high concentrations”.

Consider `C/C=C/C[C@@H](C)C(=O)[C@H]1C(=O)N[C@@H](C(C)C)C(=O)N(C)CC(=O)N(C)[C@@H](CC(C)C)C(=O)N[C@@H](C(C)C)C(=O)N(C)[C@@H](CC(C)C)C(=O)N[C@@H](C)C(=O)N[C@H](C)C(=O)N(C)[C@@H](CC(C)C)C(=O)N(C)[C@@H](CC(C)C)C(=O)N(C)[C@@H](C(C)C)C(=O)N1C` [Valspodar, cyclosporin D, 6-[(2S, 4R, 6E)-4-methyl-2 (methylamino)-3-oxo-6-octenoic acid]-(9CI)], for which the IC50 in [3] (Homo sapiens) was 15 µM; in [6] it was 45 µM; in data set [7] (Homo sapiens, Fibroblast, read-out: IC50 for hyaluronan transport (export)) it was around 15 µM.
